Test results published in PMC7687369 (Antiviral Research, 2020).

What was measured:
SARS-CoV-2 [1] = assay type: cell-based; details: Vero E6-hTMPRSS2 cells
SARS-CoV-2 [2] = test: Viral replication assay in Vero E6-hTMPRSS2 cells; assay type: cell-based
SARS-CoV-2 [3] = assay type: cell-based
MERS-CoV = details: cited from earlier work
SARS-CoV = details: cited from earlier work

CNc1ccc2oc(C[C@H]3O[C@@]4(CC[C@H]3C)O[C@H]([C@H](C)C(=O)c3ccc[nH]3)[C@H](C)C[C@H]4C)nc2c1C(=O)O [Calcimycin]
selectivity between viral-induced cytopathogenicity and inhibition of cell viability (SARS-CoV-2 [1]): 18 fold

CCN(CCO)CCCC(C)Nc1ccnc2cc(Cl)ccc12 (stereo not drawn) [Hydroxychloroquine]
anti-viral activity in the cytopathogenic effect screen (in words) (SARS-CoV-2 [1]): negligible anti-viral activity | inhibition of viral replication (in words) (SARS-CoV-2 [2]): did not efficiently inhibit viral replication | antiviral activity, SARS-CoV-2 RNA (in words) (SARS-CoV-2 [3]): effective in wildtype Vero E6 cells at high micromolar concentrations

C[C@H](CCC(=O)O)C[C@H](C)C[C@H](C)C(=O)/C=C(\O)[C@H](C)C[C@H](C)C/C=C/[C@@H](C)[C@@H](O)[C@@H](C)[C@@H](O)C[C@@H]1CC[C@@](C)([C@H]2CC[C@@](C)([C@@H](C)O)O2)O1 [Ionomycin]
selectivity between viral-induced cytopathogenicity and inhibition of cell viability (SARS-CoV-2 [1]): 5 fold

CO[C@@H]1[C@@H](OC)[C@H](C)[C@@](O)(CC(=O)O)O[C@H]1[C@H](C)[C@H]1O[C@@]2(CC[C@@](C)([C@H]3CC[C@@](C)([C@@H]4O[C@@H]([C@H]5O[C@](C)(O)[C@H](C)C[C@@H]5C)C[C@@H]4O[C@@H]4C[C@H](OC)[C@@H](OC)[C@H](C)O4)O3)O2)C[C@H](O)[C@H]1C [Maduramycin]
selectivity between viral-induced cytopathogenicity and inhibition of cell viability (SARS-CoV-2 [1]): 313 fold

CC[C@@]1([C@@H]2O[C@@H]([C@H]3O[C@@](O)(CO)[C@H](C)C[C@@H]3C)C[C@@H]2C)CC[C@H]([C@]2(C)CC[C@]3(C[C@H](O)[C@@H](C)[C@@H]([C@@H](C)[C@@H](OC)[C@H](C)C(=O)O)O3)O2)O1 [Monensin]
inhibition of the cytopathogenic effect of MERS-CoV (MERS-CoV): could inhibit the cytopathogenic effect of MERS-CoV | inhibition of the cytopathogenic effect of SARS-CoV (SARS-CoV): but not SARS-CoV

CCC(CC)COC(=O)[C@H](C)N[P@](=O)(OC[C@H]1O[C@@](C#N)(c2ccc3c(N)ncnn23)[C@H](O)[C@@H]1O)Oc1ccccc1 [Remdesivir]
selectivity between viral-induced cytopathogenicity and inhibition of cell viability (SARS-CoV-2 [1]): > 67 fold

CC[C@@H](C(=O)[C@@H](C)[C@@H](O)[C@H](C)[C@@H]1O[C@@H]([C@@H](CC)C(=O)O)CC[C@@H]1C)[C@H]1O[C@]2(C=C[C@@H](O)[C@]3(CC[C@@](C)([C@H]4CC[C@](O)(CC)[C@H](C)O4)O3)O2)[C@H](C)C[C@@H]1C [Salinomycin]
inhibition of viral replication (in words) (SARS-CoV-2 [2]): potent inhibition | inhibition of the cytopathogenic effect of MERS-CoV (MERS-CoV): could inhibit the cytopathogenic effect of MERS-CoV | inhibition of the cytopathogenic effect of SARS-CoV (SARS-CoV): but not SARS-CoV
